Reference: BindingDB's records for doi:10.1016/j.chembiol.2008.10.017 (University of Toronto, 2008)

Target: T1, Putative farnesyl pyrophosphate synthase (Cryptosporidium parvum (strain Iowa II), UniProt Q5CR09)
T1 sequence (Q5CR09 whole entry): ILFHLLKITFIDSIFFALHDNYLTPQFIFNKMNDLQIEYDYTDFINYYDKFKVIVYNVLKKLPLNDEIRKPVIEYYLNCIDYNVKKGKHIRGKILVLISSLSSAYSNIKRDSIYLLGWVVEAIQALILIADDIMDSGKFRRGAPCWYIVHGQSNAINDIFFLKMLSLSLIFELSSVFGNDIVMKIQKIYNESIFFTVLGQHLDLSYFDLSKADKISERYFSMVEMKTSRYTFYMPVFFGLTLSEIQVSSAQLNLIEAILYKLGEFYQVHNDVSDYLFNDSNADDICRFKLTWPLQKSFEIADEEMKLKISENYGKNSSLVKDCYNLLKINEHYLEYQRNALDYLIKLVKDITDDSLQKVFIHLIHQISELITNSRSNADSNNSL
Assay: Enzymatic Assay
Details: pH 7.7; 37 °C
Procedure: Enzymatic assay using CpNPPPS was assayed using Reed and Rilling method with some modification.

`O=P(O)(O)C(O)(Cc1cccnc1)P(=O)(O)O` [JMC515594 Compound 64] gave an IC50 of 45.7 nM and a Ki of 0.38 nM.
For `O=P(O)(O)C(O)(Cn1ccnc1)P(=O)(O)O`, the IC50 was 30.1 nM and the Ki was 0.05 nM.
